Measurements reported in US20090312373A1, “METHODS FOR THE TREATMENT OF CANCER USING PIPERLONGUMINE AND PIPERLONGUMINE ANALOGS” (The General Hospital Corporation, priority 2008, published 2009).

Assays:
[1] = system: EJ bladder carcinoma and U2OS osteosarcoma cell lines; assay: DNA damage in EJ bladder carcinoma and U2OS osteosarcoma cell lines; format: cell-based, human
From the text: (§1) The conditions and time of exposure are indicated in the legend of the figure.

MMTV-PyVT mammary tumor = assay: MMTV-PyVT spontaneous mammary tumor mouse model; format: in vivo
From the text: MMTV-PvVT (FVB/N-Tg) transgenic mice develop multifocal mammary tumor (from hyperplasia to metastatic) with a high incidence of metastasis (Mice were obtained from the NCI repository). This mouse model has been widely used for the correlation studies of human cancer (Guy et al., Moll. Cell. Biol. 12: 954-961, 1992). In addition, this onco-mouse model has been used to evaluate the effectiveness of potential drug therapies. Generally, due to aggressiveness of tumor growth and spread in this mouse-model, only a combination of chemo-drugs is effective in tumor growth inhibition. MMTV-PyVT mice were maintained until mammary tumor size reached to 6 mm, and then piperlongumine (2.4 mg/kg) or vehicle (DMSO) was given daily by i.p. for 13 days. Tumor size was measured every 4 days (See FIGS. 31 and 32).
We compared the anti-tumor activity of piperlongumine (SP2007) with taxol, a well known chemo drug, in the MMTV-PyVT tumor mouse model as described above (8 mice per group). When tumor sizes grew to ˜5-6 mm in diameter, SP2007 (2.4 mg/kg/day) or Taxol (Paclitaxel, 10 mg/kg/day) was administered intraperitoneally (I.P.) daily for two weeks. After two weeks treatment, mice were sacrificed, and mammary tumors excised and the tumor sizes measured. […] The size of the grossly dissected tumors was measured using the formula: mean diameter=(A+B)/2.

[2] = system: immortalized human breast epithelial cells; assay: DNA damage markers in immortalized human breast epithelial cells; format: cell-based; conditions: taxol 10 nM
From the text: as §1

[3] = system: EJ bladder carcinoma cells; assay: Persistent effects after removal of the compound in EJ cells; format: cell-based, human; conditions: 3 hrs treatment, washed, another 6 hrs in medium without compound
Description: EJ bladder carcinoma cells were treated with SP2007 (P10: 10 μM and P20: 20 μM), taxol (T10: 10 nM and T20: 20 nM) or DMSO vehicle control for either 20 hrs or 3 hrs. For the 20 hrs experiment, the percentages of remaining living cells ware measured on the end of the 20 hrs treatment time point. […] For the 3 hrs experiment, cells were washed 3 times with PBS after treatment with the and incubated for another 6 hrs in growing medium without SP2007, taxol or DMSO.

p53 = p53 acetylation Western blot in U2OS cells; format: cell-based, human; conditions: 6 hours, TSA 10 mM
Description: U2OS cells were treated with piperlongumine (SP), the HDAC inhibitor TSA (trichostatin A ([…])) or the control DMSO for 6 hours. Cell extracts were fractionated in SDS-PAGE gel and analyzed by western blot.

Structure (SMILES): COc1cccc2c1C(=O)c1c(O)c3c(c(O)c1C2=O)C[C@@](O)(C(=O)CO)C[C@@H]3O[C@H]1C[C@H](N)[C@H](O)[C@H](C)O1 [adrimycin, reference compound]
- DNA damage (phosphorylated gamma-H2AX levels) [1]: results in the induction of DNA damage

Structure (SMILES): CC(=O)O[C@H]1C(=O)[C@@]2(C)[C@H]([C@H](OC(=O)c3ccccc3)[C@]3(O)C[C@H](OC(=O)[C@H](O)[C@@H](NC(=O)c4ccccc4)c4ccccc4)C(C)=C1C3(C)C)[C@]1(OC(C)=O)CO[C@@H]1C[C@@H]2O [Taxol, reference compound]
- secondary tumors (MMTV-PyVT mammary tumor; SP2007 2.4 mg/kg/day or Taxol 10 mg/kg/day i.p. for two weeks): moderate and secondary tumors appeared
- deaths during treatment (MMTV-PyVT mammary tumor; Taxol 10 mg/kg/day i.p. daily for two weeks): two of the Taxol-treated mice died at day 10
- phosphorylated gamma-H2AX and p53 [2]: results in the induction
- killing of cancer cells after removal of the compound [3]: significantly weakened

Structure (SMILES): CC(/C=C/C(=O)NO)=C\[C@@H](C)C(=O)c1ccc(N(C)C)cc1 [TSA, reference compound]
- total amount of p53 (p53): did not increase
